Data: US12570648B2, “6,7-dihydro-5H-pyrido[2,3-c]pyridazine derivatives and related compounds as Bcl-xL protein inhibitors and pro-apoptotic agents for treating cancer” (LES LABORATOIRES SERVIER, priority 2019, dated 2026)

What was measured:
[1] = target: His-His-(EK)-hsBCLXL(2-197)[N197C] (Homo sapiens (Human), UniProt Q07817, N197C); test: Fluorescence quenching assay; assay type: binding; settings: 1 nM Cy5-labelled protein, 400 nM PUMA peptide, 2 hours at 23° C.; KI determined from IC50
Description: Fluorescence quenching assay measures the change in fluorescence intensity of C-terminally Cy5-labelled BCL-xL protein, His-His-(EK)-hsBCLXL(2-197)[N197C] (UniProtKB®
which is linked in C-terminal region to the amino acid X which corresponds to a cysteine labelled on the sulfur with Sulfo-Cyanine5 from Lumiprobe GmbH catalogue number 13380, upon binding of a C-terminally labelled peptide derived from PUMA (UniProtKB® primary accession number Q9BXH1) having an aminoacid sequence (SEQ ID:04): [[…]] which is linked in C-terminal region to the amino acid X′ where X′ is cysteine labelled on the sulfur with TQ5WS from AAT Bioquest catalogue number 2079.
The addition of a compound which binds competitively to the same site as the peptide will result in an increase in the fluorescence intensity of the protein due to displacement of the fluorescence quencher.
An 11-point serial dilution of each compound was prepared in DMSO, the final buffer conditions were 10 mM 4-(2-hydroxyethyl)-1-piperazineethanesulfonic acid [HEPES], 150 mM NaCl, 0.05% Tween 20, pH 7.4 and 5% DMSO. The final protein concentration in the assay was 1 nM with the peptide present at 400 nM. The experiments were incubated for 2 hours at 23° C. before fluorescence intensity was measured on a Biotek SynergyNeo plate reader (Excitation 620 nm, emission 680 nm). […] The K1 values were determined from the IC50 values according to Cer et al, Nucleic Acids Res, 2009, Jul. 1; 37 (WebServer issue): W441-W445.

MOLT-4 cells = test: MOLT-4 cell viability using MTT assay; assay type: cell-based; settings: Homo sapiens, MOLT-4, 48 h, 48 h exposure
Experimental: MTT colorimetric assay is based on the mitochondrial reduction of tetrazolium salt by living cells.
Cells were cultured at 37° C. in a humidified atmosphere containing 5% CO2. […] At the end of incubation time, 15 μL of MTT solution (5 mg/ml) were added per well and the cells were incubated for another 4 h. […] IC50s were calculated using standard four-parametric curve fitting.

Chain of His-His-(EK)-hsBCLXL(2-197)[N197C] (Q07817 2-197 N197C): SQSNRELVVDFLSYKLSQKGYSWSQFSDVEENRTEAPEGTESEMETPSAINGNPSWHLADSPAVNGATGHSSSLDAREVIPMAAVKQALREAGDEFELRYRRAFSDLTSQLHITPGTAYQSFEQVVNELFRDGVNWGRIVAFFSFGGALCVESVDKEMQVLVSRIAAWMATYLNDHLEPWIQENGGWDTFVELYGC

SMILES	Ki [1] [nM]	IC50 (MOLT-4 cells) [nM]
Cc1c(Nc2nc3ccccc3s2)nnc2c1CCCN2c1ccc(-c2cnn(CC34CC5(C)CC(C)(CC(CCCN(C)C)(C5)C3)C4)c2C)c(C(=O)O)n1 [Example 167, 6-[3-(1,3-benzothiazol-2-ylamino)-4-methyl-6,7-dihydro-5H-pyrido[2,3-c]pyridazin-8-yl]-3-[1-[[3-[3-(dimethylamino)propyl]-5,7-dimethyl-1-adamantyl]methyl]-5-methyl-pyrazol-4-yl]pyridine-2-carboxylic acid]	0.0019	0.0532
Cc1c(Nc2nc3ccccc3s2)nnc2c1CCCN2c1nc(C(=O)O)c(CCCOc2ccc(C#CCNCC[C@@H](O)CO)cc2F)s1 [Example 131, 2-[3-(1,3-benzothiazol-2-ylamino)-4-methyl-6,7-dihydro-5H-pyrido[2,3-c]pyridazin-8-yl]-5-[3-[4-[3-[[(3R)-3,4-dihydroxybutyl]amino]prop-1-ynyl]-2-fluoro-phenoxy]propyl]thiazole-4-carboxylic acid]	0.0045	0.275
Cc1c(Nc2nc3ccccc3s2)nnc2c1CCCN2c1nc(C(=O)O)c(CCCOc2ccc(C#CCN(C)C)cc2)s1 [Example 141, 2-[3-(1,3-benzothiazol-2-ylamino)-4-methyl-6,7-dihydro-5H-pyrido[2,3-c]pyridazin-8-yl]-5-[3-[4-[3-(dimethylamino)prop-1-ynyl]phenoxy]propyl]thiazole-4-carboxylic acid]	0.0085	0.098
Cc1c(Nc2nc3ccccc3s2)nnc2c1CCCN2c1ccc(-c2cnn(CC34CC5(C)CC(C)(C3)CC(OCCN(C)C)(C5)C4)c2C)c(C(=O)O)n1 [Example 95, 6-{3-[(1,3-benzothiazol-2-yl)amino]-4-methyl-6,7-dihydropyrido[2,3-c]pyridazin-8(5H)-yl}-3-[1-({3-[2-(dimethylamino)ethoxy]-5,7-dimethyladamantan-1-yl}methyl)-5-methyl-1H-pyrazol-4-yl]pyridine-2-carboxylic acid]	0.0056	0.205
CCN(CC)CC#Cc1ccc(OCCCc2sc(N3CCCc4c3nnc(Nc3nc5ccccc5s3)c4C)nc2C(=O)O)c(F)c1 [Example 85, 2-[3-(1,3-Benzothiazol-2-ylamino)-4-methyl-6,7-dihydro-5H-pyrido[2,3-c]pyridazin-8-yl]-5-[3-[4-[3-(diethylamino)prop-1-ynyl]-2-fluoro-phenoxy]propyl]thiazole-4-carboxylic acid]	0.044	0.416
Cc1c(Nc2nc3ccccc3s2)nnc2c1CCCN2c1ccc(-c2cnn(CC34CC5(C)CC(C)(C3)CC(OCCN3CCCCC3)(C5)C4)c2C)c(C(=O)O)n1 [Example 143, 6-[3-(1,3-benzothiazol-2-ylamino)-4-methyl-6,7-dihydro-5H-pyrido[2,3-c]pyridazin-8-yl]-3-[1-[[3,5-dimethyl-7-[2-(1-piperidyl)ethoxy]-1-adamantyl]methyl]-5-methyl-pyrazol-4-yl]pyridine-2-carboxylic acid]	0.0014	0.0546
CCNC(C)(C)C#Cc1ccc(OCCCc2sc(N3CCCc4c3nnc(Nc3nc5ccccc5s3)c4C)nc2C(=O)O)c(F)c1 [Example 102, 2-{3-[(1,3-benzothiazol-2-yl)amino]-4-methyl-6,7-dihydropyrido[2,3-c]pyridazin-8(5H)-yl}-5-(3-{4-[3-(ethylamino)-3-methylbut-1-yn-1-yl]-2-fluorophenoxy}propyl)-1,3-thiazole-4-carboxylic acid]	0.0045	0.268
Cc1c(Nc2nc3ccccc3s2)nnc2c1CCCN2c1ccc(-c2cnn(CC34CC5(C)CC(C)(CC(CCCN6CCN(C)CC6)(C5)C3)C4)c2C)c(C(=O)O)n1 [Example 168, 6-[3-(1,3-benzothiazol-2-ylamino)-4-methyl-6,7-dihydro-5H-pyrido[2,3-c]pyridazin-8-yl]-3-[1-[[3,5-dimethyl-7-[3-(4-methylpiperazin-1-yl)propyl]-1-adamantyl]methyl]-5-methyl-pyrazol-4-yl]pyridine-2-carboxylic acid]	0.0029	0.291
Cc1c(Nc2nc3ccccc3s2)nnc2c1CCCN2c1nc(C(=O)O)c(CCCOc2ccc(C#CCNCC[C@H](O)CO)cc2F)s1 [Example 129, 2-[3-(1,3-benzothiazol-2-ylamino)-4-methyl-6,7-dihydro-5H-pyrido[2,3-c]pyridazin-8-yl]-5-[3-[4-[3-[[(3S)-3,4-dihydroxybutyl]amino]prop-1-ynyl]-2-fluoro-phenoxy]propyl]thiazole-4-carboxylic acid]	0.0047	3.11
Cc1c(Nc2nc3ccccc3s2)nnc2c1CCCN2c1nc(C(=O)O)c(CCCOc2ccc(CCCN3CCCC3)cc2F)s1 [Example 69, 2-[3-(1,3-Benzothiazol-2-ylamino)-4-methyl-6,7-dihydro-5H-pyrido[2,3-c]pyridazin-8-yl]-5-[3-[2-fluoro-4-(3-pyrrolidin-1-ylpropyl)phenoxy]propyl]thiazole-4-carboxylic acid]	0.0037	4.11

The remaining molecules from weak to strong by Ki [1], led by results:

Ki [1] [nM]	IC50 (MOLT-4 cells) [nM]	SMILES
0.0067	9.53	Cc1c(Nc2nc3ccccc3s2)nnc2c1CCCN2c1nc(C(=O)O)c(CCCOc2ccc(C#CCN(CC[C@H](O)CO)CC[C@H](O)CO)cc2F)s1 [Example 125, 2-{3-[(1,3-benzothiazol-2-yl)amino]-4-methyl-6,7-dihydro-5H-pyrido[2,3-c]pyridazin-8-yl}-5-{3-[4-(3-{bis[(3S)-3,4-dihydroxybutyl]amino}prop-1-yn-1-yl)-2-fluorophenoxy]propyl}-1,3-thiazole-4-carboxylic acid]
0.0015	0.219	Cc1c(Nc2nc3ccccc3s2)nnc2c1CCCN2c1ccc(-c2cnn(CC34CC5(C)CC(C)(C3)CC(OCCN(C)CCO)(C5)C4)c2C)c(C(=O)O)n1 [Example 150, 6-[3-(1,3-benzothiazol-2-ylamino)-4-methyl-6,7-dihydro-5H-pyrido[2,3-c]pyridazin-8-yl]-3-[1-[[3-[2-[2-hydroxyethyl(methyl)amino]ethoxy]-5,7-dimethyl-1-adamantyl]methyl]-5-methyl-pyrazol-4-yl]pyridine-2-carboxylic acid]
0.0014	13.2	Cc1c(Nc2nc3ccccc3s2)nnc2c1CCCN2c1ccc(-c2cnn(CC34CC5(C)CC(C)(C3)CC(OCCN3CCNCC3)(C5)C4)c2C)c(C(=O)O)n1 [Example 144, 6-[3-(1,3-benzothiazol-2-ylamino)-4-methyl-6,7-dihydro-5H-pyrido[2,3-c]pyridazin-8-yl]-3-[1-[[3,5-dimethyl-7-(2-piperazin-1-ylethoxy)-1-adamantyl]methyl]-5-methyl-pyrazol-4-yl]pyridine-2-carboxylic acid]
0.0012	0.229	Cc1c(Nc2nc3ccccc3s2)nnc2c1CCCN2c1ccc(-c2cnn(CC34CC5(C)CC(C)(C3)CC(OCCN(C)CCCCO)(C5)C4)c2C)c(C(=O)O)n1 [Example 153, 6-[3-(1,3-benzothiazol-2-ylamino)-4-methyl-6,7-dihydro-5H-pyrido[2,3-c]pyridazin-8-yl]-3-[1-[[3-[2-[4-hydroxybutyl(methyl)amino]ethoxy]-5,7-dimethyl-1-adamantyl]methyl]-5-methyl-pyrazol-4-yl]pyridine-2-carboxylic acid]
